Tested on: VSVΔG-SW (S glycoprotein of the SARS-CoV-2 Wuhan variant)
Test: microbe, parasite or virus in culture
Assay type: cell-based
Conditions: for IC50 against VSVΔG-SW: 0.3125–40 μM

SMILES	IC50 against VSVΔG-SW	IC50 (Severe acute respiratory syndrome coronavirus 2, read-out: IC50 against VSVΔG-SW) [nM]
CNC(=O)C(C#N)(Cc1cc(Cl)cc2c1OCOC2)Cc1cc(Cl)cc2c1OCOC2 [PCM-0068389, N-methyl3-(6-chloro-2,4-dihydro-1,3-benzodioxin-8-yl)-2-[(6-chloro-2,4-dihydro-1,3-benzodioxin-8-yl)methyl]-2-cyanopropionamide]	lost all activity	–
Cc1cccc(NC(=O)CS(=O)(=O)c2nc(-c3ccccc3)cn2-c2ccc(Cl)cc2)c1C [PCM-0163855, 2-((1-(4-chlorophenyl)-4-phenyl-1H-imidazol-2-yl)sulfonyl)-N-(2,3-dimethylphenyl)acetamide]	–	600
COc1ccc2cc3c(N)nn(C(=O)Cc4c[nH]c5ccccc45)c3nc2c1 [PCM-0166392, 1-{6-amino-12-methoxy-2,4,5-triazatricyclo[7.4.0.0³,⁷]trideca-1,3(7),5,8,10,12-hexaen-4-yl}-2-(3-indolyl)-1-ethanone]	relatively high activity	–
Nc1nc(Nc2ccccc2)sc1C(=O)c1ccccc1Cl [PCM-0179622, (4-amino-2-anilino-1,3-thiazol-5-yl)(o-chlorophenyl)methanone]	relatively high activity	–

Source: article PMC11176637 (iScience, 2024)
